Where two headings read alike, the source gives them in different places.
How the values were obtained:
Type in all cases: biochemical
PI3Kβ = target: T1, PI3Kβ (Homo sapiens, UniProt P42338); test: TR-FRET enzymatic activity assay, PI3Kβ
T1 construct: made in house

PI3Kδ = target: T2, PI3Kδ (Homo sapiens, UniProt O00329); test: TR-FRET enzymatic activity assay, PI3Kδ
T2 construct: made in house

PI3Kγ = target: T3, PI3Kγ (Homo sapiens, UniProt P48736); test: TR-FRET enzymatic activity assay, PI3Kγ; conditions: read-out: PI3Kγ IC50
T3 construct: made in house
Summary of the method: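 Compounds were profiled per isoform in a biochemical kinase reaction, with activity detected by time-resolved fluorescence resonance energy transfer.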

[1] = Table 2, TR-FRET, 2x Km ATP, 30 minutes at 25° C.

T1 sequence (P42338 whole entry): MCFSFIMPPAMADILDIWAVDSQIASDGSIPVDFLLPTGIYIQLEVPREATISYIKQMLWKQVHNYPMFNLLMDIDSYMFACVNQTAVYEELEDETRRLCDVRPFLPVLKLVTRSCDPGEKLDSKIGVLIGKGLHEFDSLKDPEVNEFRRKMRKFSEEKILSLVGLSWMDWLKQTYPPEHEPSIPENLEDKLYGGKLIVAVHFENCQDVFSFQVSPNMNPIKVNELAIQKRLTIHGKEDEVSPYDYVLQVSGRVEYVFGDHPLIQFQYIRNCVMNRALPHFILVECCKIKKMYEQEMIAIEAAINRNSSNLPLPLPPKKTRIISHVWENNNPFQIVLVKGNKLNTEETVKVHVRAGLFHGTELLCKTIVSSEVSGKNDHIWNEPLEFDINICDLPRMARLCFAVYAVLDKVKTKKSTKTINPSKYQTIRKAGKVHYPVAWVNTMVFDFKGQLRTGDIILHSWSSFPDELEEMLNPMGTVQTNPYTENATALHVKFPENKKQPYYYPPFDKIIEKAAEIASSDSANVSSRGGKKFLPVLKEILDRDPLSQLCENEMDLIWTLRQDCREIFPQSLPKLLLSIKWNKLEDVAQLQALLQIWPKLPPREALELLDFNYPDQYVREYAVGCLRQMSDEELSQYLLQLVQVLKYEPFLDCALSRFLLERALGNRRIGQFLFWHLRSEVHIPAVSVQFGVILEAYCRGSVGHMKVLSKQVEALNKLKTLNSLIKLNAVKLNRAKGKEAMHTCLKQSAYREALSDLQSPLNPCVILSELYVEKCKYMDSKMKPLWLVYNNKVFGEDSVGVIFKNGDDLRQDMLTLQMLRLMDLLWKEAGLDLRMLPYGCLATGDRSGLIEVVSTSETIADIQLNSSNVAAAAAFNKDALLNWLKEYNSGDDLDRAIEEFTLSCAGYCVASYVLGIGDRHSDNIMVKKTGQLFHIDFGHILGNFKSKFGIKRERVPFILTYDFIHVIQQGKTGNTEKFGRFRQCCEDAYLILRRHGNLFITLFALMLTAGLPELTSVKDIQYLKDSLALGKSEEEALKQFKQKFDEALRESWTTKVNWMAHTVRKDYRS
T1 sequence (P27986 whole entry partner): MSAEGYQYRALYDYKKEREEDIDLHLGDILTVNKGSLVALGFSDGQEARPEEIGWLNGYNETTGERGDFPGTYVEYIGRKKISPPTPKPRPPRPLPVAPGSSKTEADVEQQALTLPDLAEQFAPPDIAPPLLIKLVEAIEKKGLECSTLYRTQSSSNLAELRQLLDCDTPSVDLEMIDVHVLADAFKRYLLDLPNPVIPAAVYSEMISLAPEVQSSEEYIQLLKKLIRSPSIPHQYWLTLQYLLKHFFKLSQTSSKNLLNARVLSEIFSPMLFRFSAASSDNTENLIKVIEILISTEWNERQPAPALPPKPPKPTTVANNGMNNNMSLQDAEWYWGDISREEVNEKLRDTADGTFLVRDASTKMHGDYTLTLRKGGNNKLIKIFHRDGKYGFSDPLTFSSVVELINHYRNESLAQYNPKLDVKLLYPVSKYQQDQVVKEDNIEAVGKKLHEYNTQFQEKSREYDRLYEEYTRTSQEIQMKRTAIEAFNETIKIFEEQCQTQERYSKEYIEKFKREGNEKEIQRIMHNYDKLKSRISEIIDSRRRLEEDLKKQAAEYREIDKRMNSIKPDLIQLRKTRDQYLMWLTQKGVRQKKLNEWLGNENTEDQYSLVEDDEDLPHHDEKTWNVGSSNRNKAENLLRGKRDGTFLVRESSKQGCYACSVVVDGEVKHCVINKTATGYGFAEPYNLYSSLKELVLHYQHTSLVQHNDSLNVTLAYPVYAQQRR
T2 sequence (O00329 whole entry): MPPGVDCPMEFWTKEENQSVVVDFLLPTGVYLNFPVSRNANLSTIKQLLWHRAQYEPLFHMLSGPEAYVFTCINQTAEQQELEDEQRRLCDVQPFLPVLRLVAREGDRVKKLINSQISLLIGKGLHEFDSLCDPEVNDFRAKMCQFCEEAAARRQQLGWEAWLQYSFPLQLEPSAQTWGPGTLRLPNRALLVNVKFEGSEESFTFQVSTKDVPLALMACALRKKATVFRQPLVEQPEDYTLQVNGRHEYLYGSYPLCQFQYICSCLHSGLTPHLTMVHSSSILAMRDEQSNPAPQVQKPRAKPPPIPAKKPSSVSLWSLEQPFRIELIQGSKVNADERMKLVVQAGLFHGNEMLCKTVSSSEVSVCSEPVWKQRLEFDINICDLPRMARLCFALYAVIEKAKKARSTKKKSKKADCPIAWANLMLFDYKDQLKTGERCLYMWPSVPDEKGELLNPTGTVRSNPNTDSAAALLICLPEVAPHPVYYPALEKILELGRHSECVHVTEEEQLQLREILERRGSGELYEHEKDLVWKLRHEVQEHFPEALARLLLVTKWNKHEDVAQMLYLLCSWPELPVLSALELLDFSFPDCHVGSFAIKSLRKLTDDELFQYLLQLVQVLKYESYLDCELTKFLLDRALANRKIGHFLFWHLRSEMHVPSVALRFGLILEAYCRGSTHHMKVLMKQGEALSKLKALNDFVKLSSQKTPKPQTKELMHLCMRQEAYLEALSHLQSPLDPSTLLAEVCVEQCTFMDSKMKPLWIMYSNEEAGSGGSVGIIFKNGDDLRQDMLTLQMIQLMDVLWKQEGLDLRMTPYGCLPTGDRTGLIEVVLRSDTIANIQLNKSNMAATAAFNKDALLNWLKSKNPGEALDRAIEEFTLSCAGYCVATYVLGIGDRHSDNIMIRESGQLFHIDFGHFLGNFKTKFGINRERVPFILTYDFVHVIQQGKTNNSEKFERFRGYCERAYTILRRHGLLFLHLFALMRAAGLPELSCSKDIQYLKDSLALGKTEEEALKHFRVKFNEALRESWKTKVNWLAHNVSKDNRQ
T2 sequence (P27986 whole entry partner): as the sequence (P27986 whole entry partner) above
T3 sequence (P48736 whole entry): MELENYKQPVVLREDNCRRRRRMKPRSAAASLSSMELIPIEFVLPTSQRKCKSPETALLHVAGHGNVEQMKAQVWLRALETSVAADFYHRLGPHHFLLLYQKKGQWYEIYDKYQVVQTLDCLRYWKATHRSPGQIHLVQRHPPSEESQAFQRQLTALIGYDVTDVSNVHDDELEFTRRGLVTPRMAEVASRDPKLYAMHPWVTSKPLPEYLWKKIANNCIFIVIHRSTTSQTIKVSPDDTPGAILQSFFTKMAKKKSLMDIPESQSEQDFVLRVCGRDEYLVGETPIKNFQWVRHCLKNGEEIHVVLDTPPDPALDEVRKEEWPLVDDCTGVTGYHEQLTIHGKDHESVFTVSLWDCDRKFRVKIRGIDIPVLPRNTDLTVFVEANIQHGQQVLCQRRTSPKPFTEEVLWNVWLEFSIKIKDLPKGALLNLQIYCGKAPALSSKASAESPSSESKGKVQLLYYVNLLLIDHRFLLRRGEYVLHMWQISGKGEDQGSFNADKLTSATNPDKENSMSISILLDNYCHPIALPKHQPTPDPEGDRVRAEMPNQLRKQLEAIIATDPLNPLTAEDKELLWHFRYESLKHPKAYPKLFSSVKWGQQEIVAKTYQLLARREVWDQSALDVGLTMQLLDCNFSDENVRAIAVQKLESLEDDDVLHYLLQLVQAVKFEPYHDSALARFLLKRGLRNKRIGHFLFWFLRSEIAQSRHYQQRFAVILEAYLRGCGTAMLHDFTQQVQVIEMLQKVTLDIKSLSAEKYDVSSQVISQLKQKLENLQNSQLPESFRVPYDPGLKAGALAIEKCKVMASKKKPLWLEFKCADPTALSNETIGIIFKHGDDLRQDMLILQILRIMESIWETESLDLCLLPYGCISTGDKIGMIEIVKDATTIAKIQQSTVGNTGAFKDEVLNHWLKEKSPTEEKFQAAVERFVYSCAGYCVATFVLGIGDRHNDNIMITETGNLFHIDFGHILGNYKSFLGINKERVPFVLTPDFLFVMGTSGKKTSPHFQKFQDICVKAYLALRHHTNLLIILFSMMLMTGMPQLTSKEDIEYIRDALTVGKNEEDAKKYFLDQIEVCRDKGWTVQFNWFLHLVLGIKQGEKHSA

Structure (SMILES) | IC50 (PI3Kβ; Table 2a, same assay) | IC50 (PI3Kδ; Table 2a, same assay) | IC50 (PI3Kγ; Table 2a, same assay) | IC50 (PI3Kβ; [1]) | IC50 (PI3Kδ; [1]) | IC50 (PI3Kγ; [1]) | IC50 (PI3Kδ) | IC50 (PI3Kγ)
Nc1nc(N)c(Cl)c(N[C@H](c2nc3c(Cl)cc(F)cc3c(=O)n2-c2cc[nH]n2)C2CCC2)n1 [Compound 129, (S)-8-chloro-2-(cyclobutyl((2,6-diamino-5-chloropyrimidin-4-yl)amino)methyl)-6-fluoro-3-(1H-pyrazol-3-yl)quinazolin-4(3H)-one] | 270 nM | 86 nM | > 10000 nM |  |  |  |  | 
CC[C@H](Nc1nc(N)nc(N)c1C#N)c1nc2c(C)ccc(F)c2c(=O)n1-c1cn[nH]c1 [Compound 35, (S)-2,4-diamino-6-((1-(5-fluoro-8-methyl-4-oxo-3-(1H-pyrazol-4-yl)-3,4-dihydroquinazolin-2-yl)propyl)amino)pyrimidine-5-carbonitrile] |  |  |  | 21 nM | 10 nM | 1400 nM |  | 
N#Cc1c(N)nc(N)nc1N[C@H](c1nc2c(C(F)(F)F)cccc2c(=O)n1-c1cc[nH]n1)C1CC1 [Compound 133, (S)-2,4-diamino-6-((cyclopropyl(4-oxo-3-(1H-pyrazol-3-yl)-8-(trifluoromethyl)-3,4-dihydroquinazolin-2-yl)methyl)amino)pyrimidine-5-carbonitrile] | 2 nM | 3 nM | 474 nM |  |  |  |  | 
Nc1nc(N)c(Cl)c(N[C@@H](c2ccccc2)c2nc3cccc(Cl)c3c(=O)n2-c2cc[nH]n2)n1 [Compound 109, (S)-5-chloro-2-(((2,6-diamino-5-chloropyrimidin-4-yl)amino)(phenyl)methyl)-3-(1H-pyrazol-3-yl)quinazolin-4(3h)-one] |  |  |  | 25 nM | 9 nM | 4900 nM |  | 
Nc1nc(N)c(Cl)c(N[C@H](c2nc3cccc(Cl)c3c(=O)n2-c2c[nH]cn2)C2CC2)n1 [Compound 287, (S)-5-chloro-2-(cyclopropyl((2,6-diamino-5-chloropyrimidin-4-yl)amino)methyl)-3-(1H-imidazol-4-yl)quinazolin-4(3H)-one] | 53 nM | 8 nM | 3000 nM |  |  |  |  | 
N#Cc1c(N)nc(N)nc1N[C@H](c1nc2c(Cl)cccc2c(=O)n1-c1cc[nH]n1)C1CC1 [Compound 30, (S)-2,4-diamino-6-(((8-chloro-4-oxo-3-(1H-pyrazol-3-yl)-3,4-dihydroquinazolin-2-yl)(cyclopropyl)methyl)amino)pyrimidine-5-carbonitrile] |  |  |  | 2 nM | 3 nM | 1300 nM |  | 
C[C@H](Nc1nc(N)nc(N)c1Cl)c1nc2c(C#N)cc(F)cc2c(=O)n1-c1cc[nH]n1 [Compound 271, (S)-2-(1-((2,6-diamino-5-chloropyrimidin-4-yl)amino)ethyl)-6-fluoro-4-oxo-3-(1H-pyrazol-3-yl)-3,4-dihydroquinazoline-8-carbonitrile] | 28 nM | 18 nM | > 10000 nM |  |  |  |  | 
CC[C@H](Nc1ncnc2[nH]cc(F)c12)c1nc2c(Cl)ccc(Cl)c2c(=O)n1-c1cc[nH]n1 [Compound 59, (S)-5,8-dichloro-2-(1-((5-fluoro-7H-pyrrolo[2,3-d]pyrimidin-4-yl)amino)propyl)-3-(1H-pyrazol-3-yl)quinazolin-4(3H)-one] |  |  |  | 97 nM |  |  | 2 nM | > 10000 nM
CC[C@H](Nc1ncnc2ccoc12)c1nc2c(Cl)ccc(Cl)c2c(=O)n1-c1cc[nH]n1 [Compound 62, (S)-5,8-dichloro-2-(1-(furo[3,2-d]pyrimidin-4-ylamino)propyl)-3-(1H-pyrazol-3-yl)quinazolin-4(3H)-one] |  |  |  | 120 nM | 9 nM |  |  | > 10000 nM
O=c1c2c(Cl)ccc(Cl)c2nc([C@@H](Nc2ncnc3scnc23)C2CC2)n1-c1cn[nH]c1 [Compound 38, (S)-5,8-dichloro-2-(cyclopropyl(thiazolo[5,4-d]pyrimidin-7-ylamino)methyl)-3-(1H-pyrazol-4-yl)quinazolin-4(3H)-one] |  |  |  | 9 nM | 4 nM | 1100 nM |  | 
C[C@H](Nc1ncnc2occc12)c1nc2cccc(Cl)c2c(=O)n1-c1cc[nH]n1 [Compound 9, (S)-5-chloro-2-(1-(furo[2,3-d]pyrimidin-4-ylamino)ethyl)-3-(1H-pyrazol-3-yl)quinazolin-4(3H)-one] |  |  |  | 940 nM | 140 nM |  |  | > 10000 nM
CC[C@H](Nc1nc(N)nc(N)c1C#N)c1nc2cccc(Cl)c2c(=O)n1-c1cc[nH]n1 [Compound 1, (S)-2,4-diamino-6-((1-(5-chloro-4-oxo-3-(1H-pyrazol-3-yl)-3,4-dihydroquinazolin-2-yl)propyl)amino)pyrimidine-5-carbonitrile] |  |  |  | 1 nM | 0.6 nM | 330 nM |  | 
C[C@H](Nc1nc(N)nc(N)c1C#N)c1nc2ccc(F)cc2c(=O)n1-c1cc[nH]n1 [Compound 115, (S)-2,4-diamino-6-((1-(6-fluoro-4-oxo-3-(1H-pyrazol-3-yl)-3,4-dihydroquinazolin-2-yl)ethyl)amino)pyrimidine-5-carbonitrile] |  |  |  | 2 nM | 1 nM | 560 nM |  | 
CC[C@H](Nc1nc(N)nc(C)c1C#N)c1nc2c(C#N)cccc2c(=O)n1-c1cn[nH]c1 [Compound 93, (S)-2-(1-((2-amino-5-cyano-6-methylpyrimidin-4-yl)amino)propyl)-4-oxo-3-(1H-pyrazol-4-yl)-3,4-dihydroquinazoline-8-carbonitrile] |  |  |  | 16 nM | 9 nM | 3800 nM |  | 
C[C@H](NC(=O)c1nc(Cl)c(N)nc1N)c1nc2c(F)ccc(Cl)c2c(=O)n1-c1cn[nH]c1 [Compound 278, (S)-3,5-diamino-6-chloro-N-(1-(5-chloro-8-fluoro-4-oxo-3-(1H-pyrazol-4-yl)-3,4-dihydroquinazolin-2-yl)ethyl)pyrazine-2-carboxamide] | 83 nM | 53 nM | 590 nM |  |  |  |  | 
O=c1c2c(Cl)cccc2nc([C@@H](Nc2ncnc3scnc23)C2CC2)n1-c1cc[nH]n1 [Compound 26, (S)-5-chloro-2-(cyclopropyl(thiazolo[5,4-d]pyrimidin-7-ylamino)methyl)-3-(1H-pyrazol-3-yl)quinazolin-4(3H)-one] |  |  |  | 3 nM | 0.6 nM | 1300 nM |  | 
C[C@H](Nc1nc(N)nc(N)c1Cl)c1nc2c(C(F)F)cccc2c(=O)n1-c1cc[nH]n1 [Compound 200, (S)-2-(1-((2,6-diamino-5-chloropyrimidin-4-yl)amino)ethyl)-8-(difluoromethyl)-3-(1H-pyrazol-3-yl)quinazolin-4(3H)-one] | 280 nM | 160 nM | > 10000 nM |  |  |  |  | 
C[C@H](Nc1nc(N)nc(N)c1Cl)c1nc2c(Cl)ccc(Cl)c2c(=O)n1-c1cn[nH]c1 [Compound 158, (S)-5,8-dichloro-2-(1-((2,6-diamino-5-chloropyrimidin-4-yl)amino)ethyl)-3-(1H-pyrazol-4-yl)quinazolin-4(3H)-one] | 83 nM | 10 nM | 5200 nM |  |  |  |  | 
C[C@H](Nc1nc(N)nc(N)c1Cl)c1nc2cccc(C(F)F)c2c(=O)n1-c1cn[nH]c1 [Compound 213, (S)-2-(1-((2,6-diamino-5-chloropyrimidin-4-yl)amino)ethyl)-5-(difluoromethyl)-3-(1H-pyrazol-4-yl)quinazolin-4(3H)-one] | 36 nM | 5 nM | 520 nM |  |  |  |  | 
C[C@H](Nc1nc(N)nc(N)c1Cl)c1nc2c(F)c(F)ccc2c(=O)n1-c1cc[nH]n1 [Compound 232, (S)-2-(1-((2,6-diamino-5-chloropyrimidin-4-yl)amino)ethyl)-7,8-difluoro-3-(1H-pyrazol-3-yl)quinazolin-4(3H)-one] | 260 nM | 190 nM | > 10000 nM |  |  |  |  | 
CC[C@H](Nc1ncnc2[nH]cc(F)c12)c1nc2c(Cl)ccc(Cl)c2c(=O)n1-c1cn[nH]c1 [Compound 58, (S)-5,8-dichloro-2-(1-((5-fluoro-7H-pyrrolo[2,3-d]pyrimidin-4-yl)amino)propyl)-3-(1H-pyrazol-4-yl)quinazolin-4(3H)-one] |  |  |  | 320 nM | 14 nM | 5900 nM |  | 
C[C@H](Nc1nc(N)nc(N)c1Cl)c1nc2c(Cl)cc(F)cc2c(=O)n1-c1c[nH]cn1 [Compound 284, (S)-8-chloro-2-(1-((2,6-diamino-5-chloropyrimidin-4-yl)amino)ethyl)-6-fluoro-3-(1H-imidazol-4-yl)quinazolin-4(3H)-one] | 340 nM | 20 nM | > 10000 nM |  |  |  |  | 
CCC[C@H](Nc1nc(N)nc(N)c1Cl)c1nc2cccc(Cl)c2c(=O)n1-c1cn[nH]c1 [Compound 250, (S)-5-chloro-2-(1-((2,6-diamino-5-chloropyrimidin-4-yl)amino)butyl)-3-(1H-pyrazol-4-yl)quinazolin-4(3H)-one] | 160 nM | 23 nM | 2020 nM |  |  |  |  | 
C[C@H](Nc1nc(N)nc(C(F)F)c1C#N)c1nc2c(Cl)cccc2c(=O)n1-c1cc[nH]n1 [Compound 188, (S)-2-amino-4-((1-(8-chloro-4-oxo-3-(1H-pyrazol-3-yl)-3,4-dihydroquinazolin-2-yl)ethyl)amino)-6-(difluoromethyl)pyrimidine-5-carbonitrile] | 9 nM | 4 nM | 4000 nM |  |  |  |  | 
N#Cc1c(N)nc(N)nc1N[C@H](c1nc2c(Cl)cc(F)cc2c(=O)n1-c1cn[nH]c1)C1CC1 [Compound 269, (S)-2,4-diamino-6-(((8-chloro-6-fluoro-4-oxo-3-(1H-pyrazol-4-yl)-3,4-dihydroquinazolin-2-yl)(cyclopropyl)methyl)amino)pyrimidine-5-carbonitrile] | 0.9 nM | 1 nM | 170 nM |  |  |  |  | 
CC[C@H](Nc1nc(N)nc2[nH]nc(Br)c12)c1nc2c(Cl)ccc(Cl)c2c(=O)n1-c1cc[nH]n1 [Compound 81, (S)-2-(1-((6-amino-3-bromo-1H-pyrazolo[3,4-d]pyrimidin-4-yl)amino)propyl)-5,8-dichloro-3-(1H-pyrazol-3-yl)quinazolin-4(3H)-one] |  |  |  | 12 nM | 16 nM |  |  | > 10000 nM

From patent US10308639B2, “Phosphatidylinositol 3-kinase inhibitors” (Gilead Sciences, Inc., priority 2014, dated 2019)
